Source: patent US20080038809A1, “ISOLATED LECTIN POLYPEPTIDES CONSISTING OF TRUNCATED […] UDP-GalNAc:POLYPEPTIDE N- ACETYLGALACTOSAMINYLTRANSFERASES” (GLYCOZYM APS, priority 2002, published 2008)
One block for each compound: values may come before it.

Tests used:
[1] = biological target: human GalNAc-T4 (UDP-GalNAc:polypeptide N-acetylgalactosaminyltransferase T4), secreted soluble enzyme (sT4), wild type (Homo sapiens, UniProt Q8N4A0); settings: binding to GalNAc-MUC1 glycopeptide
Experimental: The pH of 1 ml purified protein (0.3 mg/ml) in PBS was adjusted to pH 9 with 1 M NaOH and 40 μl N-hydroxy-succinimidobiotin (Sigma) dissolved in DMF (10 mg/ml) was added. The solution was mixed end-over-end for 2 hours at room temperature, and dialyzed three times against PBS and an equal volume of glycerol was added. The biotinylated proteins were stored at −20° C. in 50% glycerol until use.
Glycopeptides were purified by C-18 reverse phase HPLC. Peptides were custom synthesized by Neosystems (Strasbourg). Biotinylated Helix Pomatia lectin (HPA) was from KemEnTec (Denmark). Anti-MUC1 HMFG2 monoclonal antibody was a generous gift from Joyce Taylor-Papadimitriou.
Direct binding ELISA assay was developed as follows: Polystyrene microtiter plates (Maxisorb, Nunc, Denmark) were coated with peptides or enzymatically glycosylated glycopeptides in PBS overnight at 4° C. Plates were washed and blocked with 0.1% Tween20 and 0.2% BSA in PBS for 1 h at room temperature, followed by incubation with biotinylated proteins in PBS with 0.05% Tween20 for 2 h at room temperature. After four washes with PBS, plates were incubated with 1:2,000 dilution streptavidin-HRP (Sigma) in PBS for 30 min at room temperature and washed four times with PBS. […]

GalNAc-T4 = GalNAc-T4 (Homo sapiens, UniProt Q8N4A0); settings: mM concentrations; cited from earlier work
GalNAc-T4, sequence (Q8N4A0 whole entry): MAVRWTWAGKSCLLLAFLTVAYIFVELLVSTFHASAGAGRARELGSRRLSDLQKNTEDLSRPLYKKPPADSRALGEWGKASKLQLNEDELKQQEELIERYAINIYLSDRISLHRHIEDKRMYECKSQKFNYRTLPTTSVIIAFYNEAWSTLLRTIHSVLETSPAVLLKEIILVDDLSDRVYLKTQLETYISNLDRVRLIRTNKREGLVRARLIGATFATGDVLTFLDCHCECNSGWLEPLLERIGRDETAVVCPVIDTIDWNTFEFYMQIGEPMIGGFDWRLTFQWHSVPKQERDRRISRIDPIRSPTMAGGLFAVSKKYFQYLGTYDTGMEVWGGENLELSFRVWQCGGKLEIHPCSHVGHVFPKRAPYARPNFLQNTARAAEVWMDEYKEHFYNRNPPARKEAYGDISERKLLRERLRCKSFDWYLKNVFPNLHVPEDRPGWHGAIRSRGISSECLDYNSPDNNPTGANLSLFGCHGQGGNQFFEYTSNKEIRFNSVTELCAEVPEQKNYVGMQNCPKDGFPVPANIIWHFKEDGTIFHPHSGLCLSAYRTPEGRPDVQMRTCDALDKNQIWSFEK

[2] = system: MUC1 in CHO1d1D/MUC1F-clone2 cells; experiment: Cell surface expression of MUC1 by immunocytology of non-permeabilized cells (FIG. 11); format: cell-based, Chinese Hamster; settings: 1 mM, cells grown in GalNAc
Experimental: Immunocytology: Two different procedures were applied: i) For general screening purposes, cells grown in plates or flasks were trypsinized, washed in saline, and airdried on multiwell coverslides. Slides were fixed in ice-cold acetone and stained with monoclonal antibodies and FITC-conjugated rabbit anti-mouse Ig as previously described^50. ii) For analysis of cell surface expression, cells were seeded in 6 well plates and grown for 6 hours in Hams F12 medium with serum until approximately 30-50% subconfluent. […] Cells were washed once in PBS (phosphate buffered saline without Calcium and Magnesium) and subsequently fixed in 2 ml 3% paraformaldehyde at 25° C. for 20 min followed by three washes with PBS. Free aldehyde groups were quenched by incubating in 2 mL 50 mM Ammonium Chloride in PBS for 10 min, followed by three washes with PBS and three washes with 5 min incubations each with PBS containing 0.2% Fish Skin Gelatin (Sigma). Immunostaining of cells was performed by incubation with monoclonal antibodies for 40 min at 25° C., followed by three washes with PBS and three washes of 5 min each with PBS containing 0.2% Fish Skin Gelatin. […]
We therefore investigated the effect of treatment with GalNAcα-benzyl of CHO1d1D/MUC1F-clone2 cells grown in the presence of GalNAc. […] Initially we analyzed surface expression of MUC1 by immunocytology. […]

GalNAc-T4 lectin domain = biological target: T1, GalNAc-T4 lectin domain (Homo sapiens, UniProt Q8N4A0); experiment: Inhibition of GalNAc-T4 lectin domain (T4ld) binding to GalNAc-MUC1 glycopeptide, ELISA
T1 construct: comprises amino acid residues 405-578 of GALNT4; made in house; host or cells: baculovirus (pAcGP67-A), virus made in Sf9, protein produced in High Five insect cells
T1 sequence (Q8N4A0 405-578): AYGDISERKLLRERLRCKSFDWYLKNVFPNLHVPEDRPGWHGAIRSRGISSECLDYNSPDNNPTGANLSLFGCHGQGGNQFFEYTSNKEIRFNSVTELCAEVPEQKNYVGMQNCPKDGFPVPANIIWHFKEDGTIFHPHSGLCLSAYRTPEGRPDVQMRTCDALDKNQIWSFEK
Experimental: Direct binding ELISA assay was developed as follows: Polystyrene microtiter plates (Maxisorb, Nunc, Denmark) were coated with peptides or enzymatically glycosylated glycopeptides in PBS overnight at 4° C. Plates were washed and blocked with 0.1% Tween20 and 0.2% BSA in PBS for 1 h at room temperature, followed by incubation with biotinylated proteins in PBS with 0.05% Tween20 for 2 h at room temperature. After four washes with PBS, plates were incubated with 1:2,000 dilution streptavidin-HRP (Sigma) in PBS for 30 min at room temperature and washed four times with PBS. Development was performed with 0.5 mg/ml o-phenylenediamine and 0.02% H2O2 at room temperature for 15 min, and reaction stopped by adding 100 μl/well of 0.5 N H2SO4. Competitive inhibition assays were done at end-point titers of GalNAc-transferase proteins with one hour preincubations with inhibitor.
In binding studies using lectins without biotinylation antibodies to the HIS-tag and the T7-tag, or in some experiments antibodies raised to GalNAc-T2 and -T4 enzymes were used to detect binding.
Inhibition experiments were used to further define the binding specificity of GalNAc-T2 and -T4 secreted soluble enzymes as well as lectin domains compared to Helix Pomatia lectin (Table IV).

O-glycan processing = settings: cited from earlier work

human GalNAc-T4 (UDP-GalNAc:polypeptide N-acetylgalactosaminyltransferase T4), secreted soluble enzyme (sT4), wild type, sequence (Q8N4A0 36-578 limits assumed): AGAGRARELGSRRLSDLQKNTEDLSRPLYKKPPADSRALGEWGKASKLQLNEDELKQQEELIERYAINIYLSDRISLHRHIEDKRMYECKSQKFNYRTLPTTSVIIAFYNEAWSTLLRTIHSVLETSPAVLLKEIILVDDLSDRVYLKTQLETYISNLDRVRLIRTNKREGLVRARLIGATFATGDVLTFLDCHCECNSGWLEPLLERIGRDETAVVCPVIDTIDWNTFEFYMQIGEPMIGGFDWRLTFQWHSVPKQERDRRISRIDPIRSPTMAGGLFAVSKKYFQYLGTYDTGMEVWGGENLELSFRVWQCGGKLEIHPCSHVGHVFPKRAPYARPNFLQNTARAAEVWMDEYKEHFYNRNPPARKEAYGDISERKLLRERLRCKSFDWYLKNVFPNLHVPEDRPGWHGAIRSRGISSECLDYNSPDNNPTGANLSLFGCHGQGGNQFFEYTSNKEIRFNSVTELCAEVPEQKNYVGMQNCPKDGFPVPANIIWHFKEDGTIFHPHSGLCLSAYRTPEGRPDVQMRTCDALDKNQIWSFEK

inhibition of GalNAc-T4 lectin binding (in words) [1]: no inhibition
Structure (SMILES): CC(=O)N[C@H]1[C@@H](OCc2ccccc2)O[C@H](CO)[C@@H](O)[C@@H]1O [GlcNAcα-benzyl]

IC50 (GalNAc-T4 lectin domain): 5 mM
Structure (SMILES): CC(=O)N[C@H]1[C@@H](OCc2ccccc2)O[C@H](CO)[C@H](O)[C@@H]1O [BzlαGalNAc, benzyl-N-acetyl-alpha-D-galactosaminide]
inhibition of lectin mediated GalNAc-glycopeptide substrate specificity of GalNAc-T4 (GalNAc-T4): can inhibit | cell surface expression of MUC1 [2]: strong inhibition

Structure (SMILES): CC(=O)N[C@H]1[C@@H](OCc2ccccc2)O[C@H](CO)[C@H](O)[C@@H]1O [GalNAcα-benzyl, benzyl-N-acetyl-alpha-D-galactosaminide]
inhibition of O-glycan processing / sialylation (O-glycan processing): inhibit sialylation
